Assays:
Format in all cases: biochemical
MMP-14 = biological target: T1, MMP-14 (Homo sapiens, UniProt P50281); experiment: MMP-14 inhibition (in vitro Ki); details: Table 9; read-out: MMP-14 Ki (IC-50)
T1 construct: The catalytic domain enzyme was expressed in E. coli inclusion bodies, solubilized in urea; made in house

MMP-9 = biological target: T2, MMP-9 (Homo sapiens, UniProt P14780); experiment: MMP-9 inhibition (in vitro Ki); details: Table 9; read-out: MMP-9 Ki (IC-50)
T2 construct: made in house; host or cells: MMP-9-transfected HT1080 cells (spent media)

MMP-1 = biological target: T3, MMP-1 (Homo sapiens, UniProt P03956); experiment: MMP-1 inhibition (in vitro Ki); details: Table 9; read-out: MMP-1 Ki (IC-50)
T3 construct: made in house; host or cells: MMP-1-transfected HT-1080 cells (spent media)
T3 sequence (P03956 100-469): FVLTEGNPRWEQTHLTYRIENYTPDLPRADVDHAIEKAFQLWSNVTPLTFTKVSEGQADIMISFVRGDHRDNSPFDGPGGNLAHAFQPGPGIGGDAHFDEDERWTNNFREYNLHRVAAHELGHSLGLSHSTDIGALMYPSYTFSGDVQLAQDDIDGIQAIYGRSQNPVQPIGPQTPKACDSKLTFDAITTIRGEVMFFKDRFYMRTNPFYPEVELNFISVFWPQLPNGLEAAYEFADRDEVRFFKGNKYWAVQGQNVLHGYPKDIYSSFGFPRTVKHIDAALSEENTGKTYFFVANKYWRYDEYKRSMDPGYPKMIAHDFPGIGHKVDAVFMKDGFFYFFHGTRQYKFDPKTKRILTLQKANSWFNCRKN

MMP-2 = biological target: T4, MMP-2 (Homo sapiens, UniProt P08253); experiment: MMP-2 inhibition (in vitro Ki); details: Table 9; read-out: MMP-2 Ki (IC-50)
T4 construct: made in house; host or cells: MMP-2-transfected p2AHT2 cells
T4 sequence (P08253 110-660): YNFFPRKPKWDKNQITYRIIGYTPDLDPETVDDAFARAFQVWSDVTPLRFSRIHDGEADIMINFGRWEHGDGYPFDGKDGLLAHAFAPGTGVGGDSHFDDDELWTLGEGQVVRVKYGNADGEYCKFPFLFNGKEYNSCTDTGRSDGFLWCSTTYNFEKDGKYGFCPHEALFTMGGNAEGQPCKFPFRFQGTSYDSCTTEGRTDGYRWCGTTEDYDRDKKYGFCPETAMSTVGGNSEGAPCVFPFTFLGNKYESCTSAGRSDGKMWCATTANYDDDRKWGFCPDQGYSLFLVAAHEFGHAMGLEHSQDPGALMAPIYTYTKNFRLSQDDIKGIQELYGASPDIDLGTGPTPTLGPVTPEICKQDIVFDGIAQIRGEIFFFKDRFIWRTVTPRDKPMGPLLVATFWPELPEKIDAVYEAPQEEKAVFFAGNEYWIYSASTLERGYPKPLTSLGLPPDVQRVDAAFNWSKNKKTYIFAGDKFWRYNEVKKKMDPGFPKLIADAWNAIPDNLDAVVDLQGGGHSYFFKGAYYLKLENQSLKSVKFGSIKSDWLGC

MMP-13 = biological target: T5, MMP-13 (Homo sapiens, UniProt P45452); experiment: MMP-13 inhibition (in vitro Ki); details: Table 9; read-out: MMP-13 Ki (IC-50)
T5 construct: made in house; host or cells: baculovirus / insect cells

T2 sequence (P14780 107-707 limits assumed): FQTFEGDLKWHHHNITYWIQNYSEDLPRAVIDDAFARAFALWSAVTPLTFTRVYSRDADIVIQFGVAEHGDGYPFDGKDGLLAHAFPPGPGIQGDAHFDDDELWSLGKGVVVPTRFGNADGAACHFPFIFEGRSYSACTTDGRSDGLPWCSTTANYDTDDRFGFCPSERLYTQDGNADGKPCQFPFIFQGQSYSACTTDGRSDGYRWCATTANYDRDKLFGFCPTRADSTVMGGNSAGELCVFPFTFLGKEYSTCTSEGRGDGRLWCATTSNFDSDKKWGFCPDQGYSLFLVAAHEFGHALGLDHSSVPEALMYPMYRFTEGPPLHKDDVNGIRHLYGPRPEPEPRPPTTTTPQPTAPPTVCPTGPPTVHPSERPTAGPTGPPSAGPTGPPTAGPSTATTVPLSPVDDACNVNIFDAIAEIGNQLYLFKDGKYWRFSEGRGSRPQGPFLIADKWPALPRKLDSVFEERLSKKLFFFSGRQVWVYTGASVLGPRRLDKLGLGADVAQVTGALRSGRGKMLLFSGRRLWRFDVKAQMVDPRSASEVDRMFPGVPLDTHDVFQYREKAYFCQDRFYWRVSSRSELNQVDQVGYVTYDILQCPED

SMILES | Ki (MMP-14) [nM] | Ki (MMP-9) [nM] | Ki (MMP-1) [nM] | Ki (MMP-2) [nM] | Ki (MMP-13) [nM]
O=C(CCCCC1CCN(S(=O)(=O)C2(C(=O)NO)CCOCC2)CC1)N1CCCCC1 [Example A92] | > 10000 | 1100 | 3910 | 237 | 2.01
CN(C(=O)CCCCC1CCN(S(=O)(=O)C2(C(=O)NO)CCOCC2)CC1)c1ccc(F)cc1 [Example A93] | > 10000 | 336 | 1050 | 92.3 | 0.82
CN(C(=O)CCCCC1CCN(S(=O)(=O)C2(C(=O)NO)CCOCC2)CC1)c1ccccc1 [Example A94] | > 10000 | 823 | 2820 | 197 | 1.18
O=C(NO)C1(S(=O)(=O)N2CCC(c3ccc(CCc4ccsc4)cn3)CC2)CCOCC1 [Example A95] | 2270 | 7.97 | 7630 | 2.13 | 0.376
CN(C(=O)CCCCC1CCN(S(=O)(=O)C2(C(=O)NO)CCOCC2)CC1)C1CCCCC1 [Example A96] | > 10000 | 726 | 1110 | 240 | 1.1
O=C(CCCCC1CCN(S(=O)(=O)C2(C(=O)NO)CCOCC2)CC1)N1CCCC1 [Example A97] | > 10000 | 592 | 496 | 135 | 1.63
O=C(CCCCC1CCN(S(=O)(=O)C2(C(=O)NO)CCOCC2)CC1)N1CCN(c2ccccc2)CC1 [Example A98] | > 10000 | 191 | 1620 | 38.2 | 0.17
CN(Cc1ccco1)C(=O)CCCCC1CCN(S(=O)(=O)C2(C(=O)NO)CCOCC2)CC1 [Example A99] | > 10000 | 241 | 356 | 50.8 | 0.79
O=C(NO)C1(S(=O)(=O)N2CCC(c3ccc(CCc4ccccc4)cn3)CC2)CCOCC1 [Example A100] | 1770 | 13.2 | > 10000 | 5.27 | 0.45
O=C(NO)C1(S(=O)(=O)N2CCC(c3ccc(CCC(F)(F)C(F)(F)F)cn3)CC2)CC=CC1 [Example A101] | 2640 | 0.33 | 721 | 0.9 | 0.17
O=C(NO)C1(S(=O)(=O)N2CCC(c3ccc(CCc4cccs4)cn3)CC2)CCOCC1 [Example A102] | 2160 | 3.84 | 6280 | 1.3 | 0.215
COC(=O)CCCCC1CCN(S(=O)(=O)C2(C(=O)NO)CCOCC2)CC1 [Example A103] | 2880 | 3.39 | 363 | 3.84 | 1.08
O=C(NO)C1(S(=O)(=O)N2CCC(c3ccc(CCC(F)(F)F)cn3)CC2)CCCC1 [Example A105] | 1130 | 0.18 | 2170 | 0.52 | 0.23
O=C(NO)C1(S(=O)(=O)N2CCC(c3ccc(CCC4CCCC4)cn3)CC2)CCOCC1 [Example A106] | 1250 | 1.05 | 5460 | 0.54 | 0.14
COCCC(CCOC)(C(=O)NO)S(=O)(=O)N1CCC(c2ccc(CCC(F)(F)C(F)(F)F)cn2)CC1 [Example A107] | 3370 | 0.86 | 4440 | 2.89 | 0.85
O=C(NCCCCC1CCN(S(=O)(=O)C2(C(=O)NO)CCOCC2)CC1)C(=O)c1cccs1 [Example A108] | 4520 | 55.5 | 630 | 3.25 | 0.16
COCC(=O)N1CCC(C(=O)NO)(S(=O)(=O)N2CCC(c3ccc(CCC(F)(F)C(F)(F)F)cn3)CC2)CC1 [Example A109] | 3720 | 26.8 | 8300 | 0.6 | 0.42
O=C(NO)C1(S(=O)(=O)N2CCC(c3cnc(CCC4CC4)cn3)CC2)CCOCC1 [Example A110] | 9210 | 1.03 | > 10000 | 7.78 | 4.4

SMILES | Ki (MMP-14) [nM] | Ki (MMP-9) [nM] | Ki (MMP-1) [nM] | Ki (MMP-2) [nM] | Ki (MMP-13) [nM]
CN(CC1CCCCC1)C(=O)CCCC1CCN(S(=O)(=O)C2(C(=O)NO)CCOCC2)CC1 [Example A111] | > 10000 | 1710 | > 10000 | 364 | 9.09
CN(CC1CCCCC1)C(=O)CCCCC1CCN(S(=O)(=O)C2(C(=O)NO)CCOCC2)CC1 [Example A112] | > 10000 | 1820 | 708 | 190 | 0.92
O=C(NO)C1(S(=O)(=O)N2CCC(c3ccc(CCC(F)(F)C(F)(F)F)cn3)CC2)Cc2ccccc2C1 [Example A113] | 4410 | 0.8 | 9730 | 1.28 | 0.34
O=C(NO)C1(S(=O)(=O)N2CCN(c3nnn(Cc4ccccc4)n3)CC2)CCOCC1 [Example A114] | 1150 | 0.94 | 5410 | 0.38 | 0.8
O=C(NCCCCC1CCN(S(=O)(=O)C2(C(=O)NO)CCOCC2)CC1)C1(c2ccccc2)CC1 [Example A115] | > 10000 | 1350 | > 10000 | 98.5 | 0.81
O=C(NO)C1(S(=O)(=O)N2CCC(c3ccc(/C=C/C(F)(F)C(F)(F)F)cn3)CC2)CCOCC1 [Example A116] | 331 | 0.14 | 1700 | 0.19 | 0.08
CC(C)CCc1cnc(C2CCN(S(=O)(=O)C3(C(=O)NO)CCOCC3)CC2)cn1 [Example A117] | > 10000 | 0.96 | > 10000 | 9.91 | 2.8
O=C(CO)N1CCC(C(=O)NO)(S(=O)(=O)N2CCC(c3ccc(CCC(F)(F)C(F)(F)F)cn3)CC2)CC1 [Example A118] | 3600 | 0.4 | 6600 | 0.56 | 0.18
O=C(CCCCN1CCN(S(=O)(=O)C2(C(=O)NO)CCOCC2)CC1)N1CCCCC1 [Example A119] | > 10000 | > 10000 | > 10000 | > 10000 | 154
O=C(NO)C1(S(=O)(=O)N2CCC(c3ccc(CCC4CCC4)cn3)CC2)CCOCC1 [Example A120] | 1280 | 0.16 | 4910 | 0.42 | 0.15
CC(C)(C(=O)NO)S(=O)(=O)N1CCC(c2ccc(CCC(F)(F)C(F)(F)F)cn2)CC1 [Example A122] | 2600 | 0.27 | 3100 | 0.37 | 0.12
O=C(NO)C1(S(=O)(=O)N2CCC(c3ccc(CCC4CC4)cn3)CC2)CCOCC1 [Example A123] | 1280 | 0.08 | 5160 | 0.58 | 0.43
CCC(CC)(C(=O)NO)S(=O)(=O)N1CCC(c2ccc(OCC3CC3)cn2)CC1 [Example A124] | 7290 | 0.59 | 3040 | 3.42 | 3.11
CN(C(=O)CCCCN1CCN(S(=O)(=O)C2(C(=O)NO)CCOCC2)CC1)C1CCCCC1 [Example A125] | > 10000 | > 10000 | > 10000 | > 10000 | 106
O=C(NO)C1(S(=O)(=O)N2CCC(c3ccc(CCC(F)(F)C(F)(F)F)cn3)CC2)CCC1 [Example A126] | 1300 | 0.14 | 2750 | 0.27 | 0.06
O=C(NO)C1(S(=O)(=O)N2CCC(c3ccc(C(F)(F)CCC(F)(F)F)cn3)CC2)CCOCC1 [Example A128] | > 10000 | 8.82 | 5190 | 3.33 | 0.84
CCC(F)(F)c1ccc(C2CCN(S(=O)(=O)C3(C(=O)NO)CCOCC3)CC2)nc1 [Example A129] | 4540 | 10.8 | 650 | 2.96 | 2.81

From patent US20050209278A1, “Piperidinyl- and piperazinyl-sulfonylmethyl hydroxamic acids and their use as protease inhibitors” (priority 2002, published 2005)
